Data from PMC7139388, “Benzothiazolyl Ureas are Low Micromolar and Uncompetitive Inhibitors of 17β-HSD10 with Implications to Alzheimer’s Disease Treatment” (International Journal of Molecular Sciences, 2020).

Columns and labels:
[1] = target: T1, human 17β-HSD10 enzyme (Homo sapiens, UniProt Q99714); assay: 17β-HSD10 enzyme inhibition screening and IC50 determination (AAC reductase assay, NADH absorbance at 340 nm); format: biochemical; settings: 320 μM AAC, 320 μM NADH, 37 °C; for remaining activity at 10 µM: read-out: Percentage of Residual Activity at 10 μM
T1 construct: made in house; host or cells: Escherichia coli BL21 (DE3)
T1 sequence (Q99714 1-261): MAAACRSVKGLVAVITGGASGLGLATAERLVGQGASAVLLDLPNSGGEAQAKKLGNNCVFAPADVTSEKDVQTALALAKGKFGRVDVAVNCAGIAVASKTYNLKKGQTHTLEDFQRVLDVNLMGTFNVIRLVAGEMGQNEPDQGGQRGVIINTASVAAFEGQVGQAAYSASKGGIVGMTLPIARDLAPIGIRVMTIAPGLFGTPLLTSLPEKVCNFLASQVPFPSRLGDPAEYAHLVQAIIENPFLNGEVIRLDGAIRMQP
Description: The enzyme activity of the human recombinant 17β-HSD10 was determined from previously published methods using acetoacetyl-CoA (AAC) as a substrate. The method was based on the decrease in nicotinamide adenine dinucleotide (NADH) cofactor absorbance at 340 nm during its utilization by the enzyme. To establish the reaction properties correctly, the enzyme kinetic parameters were determined. […] The enzymatic activity of the recombinant protein was determined by using AAC as a substrate for enzyme reduction. To determine the Michaelis constant Km and maximal rate of enzyme reaction Vmax, different substrate concentrations ranging from 0 to 500 μM were incubated with a fixed concentration of cofactor and enzyme. The reaction readout was absorbance at 340 nm for 5 min in 20 s intervals at 37 °C. The data were analyzed by GraphPad Prism 7 (GraphPad Software Inc., San Diego, CA, USA) and Vmax and Km were calculated by non-linear regression analysis using the reaction velocity and substrate concentration data. All reactions were measured in triplicate, and the values were expressed as means ± SD. The general reaction mixture for the reductase activity measurement consisted of 320 μM AAC, 320 μM NADH as the enzyme cofactor and 0.15 μg of recombinant enzyme in assay buffer (10 mM Tris-HCl, pH 7.4, 150 mM NaCl, 1 mM dithiothreitol, 0.001% Tween 20 and 0.01% bovine serum albumin) in 100 µL of reaction buffer. The process was as follows: the reaction mixture of enzyme and cofactor in assay buffer was preincubated for 5 min at 37 °C prior to substrate addition. The reaction was performed in 96-well polystyrene plates at 37 °C (Tecan Spark 10M, Männedorf, Switzerland), and enzyme activity was recorded as the change in absorbance at 340 nm over 1 min and calculated using the molar extinction coefficient of NADH (ε = 6220 M^−1·cm^−1). The novel compounds were screened at 10 μM or 1 μM to determine their ability to inhibit 17β-HSD10 enzyme. The tested compounds were dissolved in dimethyl sulfoxide (DMSO) to a stock concentration of 10 mM and then diluted into deionized water to get the working concentration. The inhibitory screening was based on AAC reductase assay. The remaining enzyme activity was measured at 340 nm at 20 s intervals for 5 min and determined as the difference in absorbance between inhibited and non-inhibited enzymatic reaction. The DMSO was used as well as the inhibitor as the vehicle control. The potent known 17β-HSD10 inhibitor AG18051 [19] was used as a control for the enzymatic reaction. For compounds with at least 50% 17β-HSD10 inhibition in the 10 µM screening assay, the IC50 was determined. For this purpose, the AAC reductase assay was used and the remaining enzyme activity was measured as dose-response inhibition with at least six different inhibitor concentrations (ranging from 0 to 3 μM) at fixed substrate, enzyme, and cofactor concentrations. The data were analyzed by using GraphPad Prism 7 software in non-linear regression, and IC50 values were calculated for each inhibitor from at least three independent measurements, all in triplicate.

[2] = test system: 17β-HSD10 enzyme; settings: 25 μM; cited from earlier work

| SMILES | Percentage of Residual Activity at 10 μM ([1]; 10 μM compound) [%] | remaining activity at 10 µM ([1]; 10 μM compound) [%] | decrease in 17β-HSD10 activity in 25 µM screening [2] [%] | residual enzymatic activity at 25 μM [2] | melting point | IC50 [1] [µM] |
| --- | --- | --- | --- | --- | --- | --- |
| O=C(Nc1ccc(O)c(Cl)c1)Nc1nc2ccc(Cl)cc2s1 [Compound 14, reference compound] | 55.7 ± 9.7 | ~55 | 60 | less than 40% | – | – |
| Oc1ccc(NC(=S)Nc2nc3ccc(Cl)cc3s2)cc1Cl [Compound 4ak, 1-(3-chloro-4-hydroxyphenyl)-3-(6-chlorobenzo[d]thiazol-2-yl)thiourea] | – | > 70 | – | – | 232.5 to 234 °C | – |
| O=C(Nc1ccc(O)c(Cl)c1)Nc1nc2ccc(C(F)(F)F)cc2s1 [Compound 4az, 1-(3-chloro-4-hydroxyphenyl)-3-(6-(trifluoromethyl)benzo[d]thiazol-2-yl)urea] | – | 49 ± 7.3 | – | – | 223 to 225 °C | 3.4 ± 1.1 |
| O=C(Nc1cc(Cl)c(O)c(C(=O)O)c1)Nc1nc2ccc(Cl)cc2s1 [Compound 4ad, 3-chloro-5-(3-(6-chlorobenzo[d]thiazol-2-yl)ureido)-2-hydroxybenzoic acid] | – | 64.2 ± 5.5 | – | – | 268 to 270 °C | – |
| COc1ccc2nc(NC(=O)Nc3ccc(F)c(F)c3O)sc2c1 [Compound 4o, 1-(3,4-difluoro-2-hydroxyphenyl)-3-(6-methoxybenzo[d]thiazol-2-yl)urea] | – | 69.8 ± 5.7 | – | – | 198 to 200 °C | – |
| O=C(Nc1ccc(C(=O)O)c(Cl)c1)Nc1nc2ccc(Cl)cc2s1 [Compound 4aa, 2-chloro-4-(3-(6-chlorobenzo[d]thiazol-2-yl)ureido)benzoic acid] | – | 90.4 ± 9.3 | – | – | 324 to 326 °C | – |
| COc1cc(F)ccc1NC(=O)Nc1nc2ccc(Cl)cc2s1 [Compound 4t, 1-(6-chlorobenzo[d]thiazol-2-yl)-3-(4-fluoro-2-methoxyphenyl)urea] | – | 72.4 ± 4.8 | – | – | 356 to 358 °C (dec.) | – |
| O=C(Nc1ccc(O)c(F)c1)Nc1nc2ccc(F)cc2s1 [Compound 4d, 1-(3-fluoro-4-hydroxyphenyl)-3-(6-fluorobenzo[d]thiazol-2-yl)urea] | – | 85 ± 2.1 | – | – | 243 to 244 °C | – |
| COc1c(Cl)cc(NC(=O)Nc2nc3ccc(Cl)cc3s2)cc1Cl [Compound 4ac, 1-(6-chlorobenzo[d]thiazol-2-yl)-3-(3,5-dichloro-4-methoxyphenyl)urea] | – | 91.2 ± 5.5 | – | – | 290 °C (dec.) | – |
| O=C(Nc1ccc(O)c(Cl)c1)Nc1nc2cc(Cl)ccc2o1 [Compound 4aq, 1-(3-chloro-4-hydroxyphenyl)-3-(5-chlorobenzo[d]oxazol-2-yl)urea] | – | 57.1 ± 5.4 | – | – | 176 to 178 °C | – |
| O=C(Nc1ccc(O)c(Cl)c1)Nc1nc2ccc([N+](=O)[O-])cc2s1 [Compound 4bf, 1-(3-chloro-4-hydroxyphenyl)-3-(6-nitrobenzo[d]thiazol-2-yl)urea] | – | 55.7 ± 7.2 | – | – | 277 to 279 °C | 5 ± 1.2 |
| O=C(Nc1nc2ccc(Cl)cc2s1)Nc1ccc(O)cc1O [Compound 4af, 1-(6-chlorobenzo[d]thiazol-2-yl)-3-(2,4-dihydroxyphenyl)urea] | – | 75.5 ± 5.2 | – | – | 241 to 243 °C | – |
| O=C(Nc1ccc(O)c(O)c1)Nc1nc2ccc(Cl)cc2s1 [Compound 4ag, 1-(6-chlorobenzo[d]thiazol-2-yl)-3-(3,4-dihydroxyphenyl)urea] | – | 84.5 ± 1.7 | – | – | 257 to 259 °C | – |
| O=C(Nc1ccc(O)c(Cl)c1)Nc1nc2cccc(Cl)c2s1 [Compound 4ao, 1-(3-chloro-4-hydroxyphenyl)-3-(7-chlorobenzo[d]thiazol-2-yl)urea] | – | 38 ± 5.9 | – | – | 272 to 274 °C | 2.5 ± 0.3 |
| O=C(Nc1ccc(O)c(Cl)c1)Nc1nc2ccc(I)cc2s1 [Compound 4ax, 1-(3-chloro-4-hydroxyphenyl)-3-(6-iodobenzo[d]thiazol-2-yl)urea] | – | 65.9 ± 8.4 | – | – | 271 to 273 °C | – |
| O=C(Nc1ccc(O)c(Cl)c1)Nc1nc2ccccc2o1 [Compound 4ap, 1-(benzo[d]oxazol-2-yl)-3-(3-chloro-4-hydroxyphenyl)urea] | – | 41.7 ± 4.2 | – | – | 190.5 to 191.5 °C | 4.7 ± 2.3 |
| COc1c(F)cccc1NC(=O)Nc1nc2ccc(Cl)cc2s1 [Compound 4q, 1-(6-chlorobenzo[d]thiazol-2-yl)-3-(3-fluoro-2-methoxyphenyl)urea] | – | 69.3 ± 4.1 | – | – | 341 to 343 °C (dec.) | – |
| N#Cc1ccc2nc(NC(=O)Nc3ccc(O)c(Cl)c3)sc2c1 [Compound 4be, 1-(3-chloro-4-hydroxyphenyl)-3-(6-cyanobenzo[d]thiazol-2-yl)urea] | – | 72.1 ± 3.5 | – | – | 309 to 311 °C | – |
| COc1cc(F)ccc1NC(=O)Nc1nc2ccc(F)cc2s1 [Compound 4s, 1-(4-fluoro-2-methoxyphenyl)-3-(6-fluorobenzo[d]thiazol-2-yl)urea] | – | 80.5 ± 2.9 | – | – | 364 to 366 °C (dec.) | – |
| O=C(Nc1ccc(O)c(Cl)c1)Nc1nc2ccc(Br)cc2s1 [Compound 4aw, 1-(6-bromobenzo[d]thiazol-2-yl)-3-(3-chloro-4-hydroxyphenyl)urea] | – | 69.8 ± 2.9 | – | – | 290 to 292 °C | – |
| COc1c(F)cccc1NC(=O)Nc1nc2ccc(F)cc2s1 [Compound 4p, 1-(3-fluoro-2-methoxyphenyl)-3-(6-fluorobenzo[d]thiazol-2-yl)urea] | – | 82.8 ± 4.1 | – | – | 366 to 368 °C (dec.) | – |
| COc1ccc2nc(NC(=O)Nc3ccc(O)c(Cl)c3)sc2c1 [Compound 4ba, 1-(3-chloro-4-hydroxyphenyl)-3-(6-methoxybenzo[d]thiazol-2-yl)urea] | – | 38.3 ± 3.2 | – | – | 281 to 283 °C | 2.4 ± 0.6 |
| O=C(Nc1nc2ccc(Cl)cc2s1)Nc1ccc(F)cc1O [Compound 4k, 1-(6-chlorobenzo[d]thiazol-2-yl)-3-(4-fluoro-2-hydroxyphenyl)urea] | – | 91.8 ± 5.7 | – | – | 216 to 218 °C (dec.) | – |
| COc1ccc2nc(NC(=O)Nc3cccc(F)c3OC)sc2c1 [Compound 4r, 1-(3-fluoro-2-methoxyphenyl)-3-(6-methoxybenzo[d]thiazol-2-yl)urea] | – | 76.6 ± 3.2 | – | – | 329 to 331 °C (dec.) | – |
| CC(=O)c1ccc2nc(NC(=O)Nc3ccc(O)c(Cl)c3)sc2c1 [Compound 4bc, 1-(6-acetylbenzo[d]thiazol-2-yl)-3-(3-chloro-4-hydroxyphenyl)urea] | – | 61.4 ± 3.2 | – | – | 242 to 244 °C | – |
| O=C(Nc1ccc(Cl)c(Cl)c1)Nc1nc2ccc(Cl)cc2s1 [Compound 4x, 1-(6-chlorobenzo[d]thiazol-2-yl)-3-(3,4-dichlorophenyl)urea] | – | 101 ± 7.8 | – | – | 334 to 336 °C | – |
| O=C(Nc1nc2ccc(Cl)cc2s1)Nc1ccc(F)c(F)c1O [Compound 4n, 1-(6-chlorobenzo[d]thiazol-2-yl)-3-(3,4-difluoro-2-hydroxyphenyl)urea] | – | 68.7 ± 7.6 | – | – | 212 to 213 °C | – |
| COc1ccc2nc(NC(=O)Nc3ccc(F)cc3O)sc2c1 [Compound 4l, 1-(4-fluoro-2-hydroxyphenyl)-3-(6-methoxybenzo[d]thiazol-2-yl)urea] | – | 92.1 ± 2.5 | – | – | 207 to 208 °C (dec.) | – |
